# In ChEMBL document CHEMBL1201862, “PubChem BioAssay data set” (2004):
#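 Compound exposure: 48 hours, 5 concentrations, 96-well plates. Here, GI50 denotes the concentration required for 50% inhibition of growth.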 Activity calls are given as the source filed them. Cut-off read from the data, not from the text of the source: active = GI50 up to about 1.1 µM and inactive = higher.
# Key:
# Assay in all cases: inhibition of tumour cell growth, NCI panel, 48 h
# 786-0 = tested on: 786-0
# A498 = tested on: A498
# A549 = tested on: A549
# ACHN = tested on: ACHN
# CCRF-CEM = tested on: CCRF-CEM
# COLO 205 = tested on: COLO 205
# DLD-1 = tested on: DLD-1
# EKVX = tested on: EKVX
# HCC 2998 = tested on: HCC 2998
# HCT-116 = tested on: HCT-116
# HCT-15 = tested on: HCT-15
# HL-60 = tested on: HL-60
# HOP-18 = tested on: HOP-18
# HOP-62 = tested on: HOP-62
# HT-29 = tested on: HT-29
# IGROV-1 = tested on: IGROV-1
# K562 = tested on: K562
# KM-20L2 = tested on: KM-20L2
# KM12 = tested on: KM12
# LOX IMVI = tested on: LOX IMVI
# LXFL 529 = tested on: LXFL 529
# M14 = tested on: M14
# M19-MEL = tested on: M19-MEL
# MOLT-4 = tested on: MOLT-4
# Malme-3M = tested on: Malme-3M
# NCI-H226 = tested on: NCI-H226
# NCI-H23 = tested on: NCI-H23
# NCI-H460 = tested on: NCI-H460
# NCI-H522 = tested on: NCI-H522
# OVCAR-3 = tested on: OVCAR-3
# OVCAR-4 = tested on: OVCAR-4
# OVCAR-5 = tested on: OVCAR-5
# OVCAR-8 = tested on: OVCAR-8
# RPMI-8226 = tested on: RPMI-8226
# RXF 393 = tested on: RXF 393
# SF-268 = tested on: SF-268
# SF-295 = tested on: SF-295
# SF-539 = tested on: SF-539
# SK-MEL-28 = tested on: SK-MEL-28
# SK-MEL-2 = tested on: SK-MEL-2
# SK-OV-3 = tested on: SK-OV-3
# SN12C = tested on: SN12C
# SNB-19 = tested on: SNB-19
# SNB-75 = tested on: SNB-75
# SNB-78 = tested on: SNB-78
# SW-620 = tested on: SW-620
# TK-10 = tested on: TK-10
# U-251 = tested on: U-251
# UACC-257 = tested on: UACC-257
# UACC-62 = tested on: UACC-62
# UO-31 = tested on: UO-31
# XF498 = tested on: XF498
structure (smiles),measurement,setting,value
COc1ccc2cc3[n+](cc2c1O)CCc1cc2c(cc1-3)OCO2 [BERBERRUBINE CHLORIDE],GI50,786-0,> 100 µM (inactive)
same,GI50,A498,> 100 µM (inactive)
same,GI50,A549,96.6 µM (inactive)
same,GI50,ACHN,79.8 µM (inactive)
same,GI50,CCRF-CEM,80.7 µM (inactive)
same,GI50,COLO 205,> 100 µM (inactive)
same,GI50,DLD-1,> 100 µM (inactive)
same,GI50,EKVX,> 100 µM (inactive)
same,GI50,HCC 2998,> 100 µM (inactive)
same,GI50,HCT-116,83 µM (inactive)
same,GI50,HCT-15,> 100 µM
same,GI50,HL-60,> 100 µM (inactive)
same,GI50,HOP-18,> 100 µM (inactive)
same,GI50,HOP-62,> 100 µM (inactive)
same,GI50,HT-29,96.4 µM (inactive)
same,GI50,IGROV-1,> 100 µM (inactive)
same,GI50,K562,> 100 µM (inactive)
same,GI50,KM-20L2,> 100 µM (inactive)
same,GI50,KM12,> 100 µM (inactive)
same,GI50,LOX IMVI,40.4 µM (inactive)
same,GI50,LXFL 529,> 10 µM (inactive)
same,GI50,M14,> 100 µM (inactive)
same,GI50,M19-MEL,> 100 µM (inactive)
same,GI50,MOLT-4,52.8 µM (inactive)
same,GI50,Malme-3M,> 100 µM (inactive)
same,GI50,NCI-H226,> 100 µM (inactive)
same,GI50,NCI-H23,70 µM (inactive)
same,GI50,NCI-H460,54 µM (inactive)
same,GI50,NCI-H522,> 100 µM (inactive)
same,GI50,OVCAR-3,> 100 µM (inactive)
same,GI50,OVCAR-4,> 100 µM (inactive)
same,GI50,OVCAR-5,> 100 µM (inactive)
same,GI50,OVCAR-8,> 100 µM (inactive)
same,GI50,RPMI-8226,> 100 µM (inactive)
same,GI50,RXF 393,> 100 µM (inactive)
same,GI50,SF-268,> 100 µM (inactive)
same,GI50,SF-295,> 100 µM (inactive)
same,GI50,SF-539,> 100 µM (inactive)
same,GI50,SK-MEL-28,> 100 µM (inactive)
same,GI50,SK-MEL-2,> 100 µM (inactive)
same,GI50,SK-OV-3,> 100 µM (inactive)
same,GI50,SN12C,> 100 µM (inactive)
same,GI50,SNB-19,> 100 µM (inactive)
same,GI50,SNB-75,> 100 µM (inactive)
same,GI50,SNB-78,> 100 µM (inactive)
same,GI50,SW-620,92.9 µM (inactive)
same,GI50,TK-10,> 100 µM (inactive)
same,GI50,U-251,> 100 µM (inactive)
same,GI50,UACC-257,> 100 µM (inactive)
same,GI50,UACC-62,> 100 µM (inactive)
same,GI50,UO-31,> 100 µM (inactive)
same,GI50,XF498,> 100 µM (inactive)
